Measured values taken from the NIST ThermoML archive (doi:10.1021/je060138i).
± gives the expanded uncertainty stated by the source.

Assays:
[1] = for mass density: 293.15 K, 101.33 kPa, Liquid
[2] = refractive index (Na D-line) (dimensionless); conditions: 293.15 K; 101.33 kPa; Liquid; Standard Abbe refractometry

Normal melting temperature ([1]; Crystal, visual observation) | mass density [1] | refractive index [2] | Structure (SMILES)
310.50 ± 4.4 °C | – | – | O=P1(O)OCC2(CO1)COP(=O)(O)OC2 (stereo unspecified)
– | 1050 ± 1 kg/m3 | 1.3718 ± 0.0008 | CC(=O)O [acetic acid]
– | 783 ± 1 kg/m3 | 1.343 ± 0.0007 | CC#N [acetonitrile]
– | 1321 ± 1 kg/m3 | 1.4237 ± 0.0007 | ClCCl [dichloromethane]
– | 899 ± 1 kg/m3 | 1.3719 ± 0.0007 | CCOC(C)=O [ethyl acetate]

Structure (SMILES) | Normal melting temperature ([1]; Crystal, visual observation) | mass density [1] | refractive index [2]
CC(C)=O [acetone] | – | 790 ± 1 kg/m3 | 1.359 ± 0.0007
